{"source": "BindingDB's records for doi:10.1021/jm9603072", "about": "(University of Paris, 1997)", "biological_target": "Gastrin/cholecystokinin type B receptor (Cavia porcellus)", "test": "Inhibition of [3H]pCCK-8 binding to Guinea pig cortex membrane Cholecystokinin type B receptor"}
{"smiles": "C[C@]1(Cc2c[nH]c3ccccc23)NC(=O)CCCCSSCC[C@@H](C(=O)N[C@@H](CC(=O)O)C(=O)N[C@@H](Cc2ccccc2)C(N)=O)NC1=O", "note": "[N-(1-Carbamoyl-2-phenyl-ethyl)-3-{[(5R,8R)-8-(1H-indol-3-ylmethyl)-8-methyl-7,10-dioxo-1,2-dithia-6,9-diaza-cyclotetradecane-5-carbonyl]-amino}-succinamic acid]", "values": [{"measurement": "Ki", "result": 51, "unit": "nM"}]}
